For 11 molecules, IC50 results are on record in patent US20240116947A1, “PYRIDO OXAZINE DERIVATIVES AS ALK5 INHIBITORS” (CHIESI FARMACEUTICI S.P.A., priority 2020, published 2024).

For this assay, the target named is human ALK5 (Homo sapiens (Human), UniProt P36897). Description: ADP-GLO Kinases assay, inhibition of ALK5 enzymatic activity. Conditions: Table 4; potency bins; purified recombinant human ALK5, ADP-Glo, 25° C.; read-out: ALK5 IC50. It counts as biochemical. The procedure: The enzymatic activity of compounds of the present invention was monitored measuring the formation of ADP using the ADP-GLO Kinases assay. Following the incubation of the purified enzyme, a substrate and ATP, the produced ADP was converted into ATP, which in turn was converted into light by Ultra-Glo Luciferase. The luminescent signal positively correlated with ADP amount and kinase activity. Briefly, the kinase reaction was performed by incubating 2.6 nM of the purified, commercially available human ALK5 (recombinant TGF β1 N-term GST-tagged, 80-end), a final concentration of TGFβ1 peptide 94.5 μM (Promega, T36-58) and ultra-pure ATP (Promega V915B). […] All reactions/incubations were performed at 25° C. Compound and ALK5 kinase were mixed and incubated for 15 mins. Reactions were initiated by addition of ATP at a final concentration in the assay of 0.83 μM. After an incubation of 150 min, the reaction was stopped, and ADP production detected with ADP-Glo kit according to manufacturer's indications. The assay was performed in 384-well format and was validated using a selection of reference compounds that was tested in 11 point concentration-response curve.
Chain of human ALK5 (P36897 80-503 limits assumed): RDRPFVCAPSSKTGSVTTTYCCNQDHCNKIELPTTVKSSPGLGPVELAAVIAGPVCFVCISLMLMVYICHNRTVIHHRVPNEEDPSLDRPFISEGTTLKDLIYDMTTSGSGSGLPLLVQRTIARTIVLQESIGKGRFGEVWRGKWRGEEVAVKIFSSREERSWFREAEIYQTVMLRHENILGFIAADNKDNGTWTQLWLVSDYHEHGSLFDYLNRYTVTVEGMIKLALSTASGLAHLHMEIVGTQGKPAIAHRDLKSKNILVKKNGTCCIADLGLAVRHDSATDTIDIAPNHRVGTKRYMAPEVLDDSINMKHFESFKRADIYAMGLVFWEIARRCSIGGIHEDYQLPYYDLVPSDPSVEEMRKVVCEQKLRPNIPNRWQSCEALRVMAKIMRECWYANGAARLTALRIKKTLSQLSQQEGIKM

Consider `CS(=O)(=O)CCNCCC(=O)Nc1cc(N2CCOc3cnc(-c4cc(Cl)ccc4F)cc32)ccn1` [Example 26, N-{4-[7-(5-chloro-2-fluorophenyl)-1H,2H,3H-pyrido[3,4-b][1,4]oxazin-1-yl]pyridin-2-yl}-3-[(2-methanesulfonylethyl)amino] propanamide], for which the IC50 was less than 1 nM. `O=C(CCN1CCN(CCN(CCO)CCO)CC1)Nc1cc(N2CCOc3cnc(-c4cc(Cl)ccc4F)cc32)ccn1` [Example 36, 3-(4-{2-[bis(2-hydroxyethyl)amino]ethyl}piperazin-1-yl)-N-{4-[7-(5-chloro-2-fluorophenyl)-1H,2H,3H-pyrido[3,4-b][1,4]oxazin-1-yl]pyridin-2-yl}propanamide]: the IC50 is less than 1 nM. As to `CN1CC2(C1)CN(CC(=O)Nc1cc(N3CCOc4cnc(-c5cc(Cl)ccc5F)cc43)ccn1)CCO2` [Example 54, N-{4-[7-(5-chloro-2-fluorophenyl)-1H,2H,3H-pyrido[3,4-b][1,4]oxazin-1-yl]pyridin-2-yl}-2-{2-methyl-5-oxa-2,8-diazaspiro[3.5]nonan-8-yl}acetamide], the IC50 is less than 1 nM. The same measure for `Nc1cc(N2CCOc3cnc(-c4nc(Cl)ccc4F)cc32)ccn1` [Example 7, 4-[7-(6-Chloro-3-fluoropyridin-2-yl)-1H,2H,3H-pyrido[3,4-b][1,4]oxazin-1-yl]pyridin-2-amine]: 5 to 10 nM; for `COC(=O)C1CN(CCC(=O)Nc2cc(N3CCOc4cnc(-c5cc(Cl)ccc5F)cc43)ccn2)CCN1C` (centres unmarked) [Example 45, Methyl 4-[2-({4-[7-(5-chloro-2-fluorophenyl)-1H,2H,3H-pyrido[3,4-b][1,4]oxazin-1-yl]pyridin-2-yl}carbamoyl)ethyl]-1-methylpiperazine-2-carboxylate]: less than 1 nM.

Take `CNC(=O)CCN1CCN(CCC(=O)Nc2cc(N3CCOc4cnc(-c5cc(Cl)ccc5F)cc43)ccn2)CC1` [Example 31, 3-{4-[2-({4-[7-(5-chloro-2-fluorophenyl)-1H,2H,3H-pyrido[3,4-b][1,4]oxazin-1-yl]pyridin-2-yl}carbamoyl)ethyl]piperazin-1-yl}-N-methylpropanamide]: the IC50 is less than 1 nM. On to `CN1CCN(CCC(=O)Nc2cc(N3CCOc4cnc(-c5cc(C6CC6)ccc5F)cc43)ccn2)CC1` [Example 33, N-{4-[7-(5-cyclopropyl-2-fluorophenyl)-1H,2H,3H-pyrido[3,4-b][1,4]oxazin-1-yl]pyridin-2-yl}-3-(4-methylpiperazin-1-yl)propanamide], for which the IC50 was less than 1 nM. The result for `O=C(CCN1CCOCC1)Nc1cc(N2CCOc3cnc(-c4cc(Cl)ccc4F)cc32)ccn1` [Example 8, N-{4-[7-(5-chloro-2-fluorophenyl)-1H,2H,3H-pyrido[3,4-b][1,4]oxazin-1-yl]pyridin-2-yl}-3-(morpholin-4-yl)propanamide] reads less than 1 nM. The result for `O=C(CCN1CCN(CCO)CC1)Nc1cc(N2CCOc3cnc(-c4cc(Cl)ccc4F)cc32)ccn1` [Example 28, N-{4-[7-(5-chloro-2-fluorophenyl)-1H,2H,3H-pyrido[3,4-b][1,4]oxazin-1-yl]pyridin-2-yl}-3-[4-(2-hydroxyethyl)piperazin-1-yl]propanamide] reads less than 1 nM. With `CN1CC2(C1)CN(CC(=O)Nc1cc(N3CCOc4cnc(-c5cc(Cl)ccc5F)cc43)ccn1)C2` [Example 53, N-{4-[7-(5-chloro-2-fluorophenyl)-1H,2H,3H-pyrido[3,4-b][1,4]oxazin-1-yl]pyridin-2-yl}-2-{6-methyl-2,6-diazaspiro[3.3]heptan-2-yl}acetamide], the IC50 was less than 1 nM. The result for `CN1CCN(CCC(=O)Nc2cc(N3CCOc4cnc(-c5cc(Cl)ncc5F)cc43)ccn2)CC1` [Example 42, N-{4-[7-(2-chloro-5-fluoropyridin-4-yl)-1H,2H,3H-pyrido[3,4-b][1,4]oxazin-1-yl]pyridin-2-yl}-3-(4-methylpiperazin-1-yl)propanamide] reads less than 1 nM.

As usually defined, the IC50 is the concentration at which inhibition is half-maximal.
